In ChEMBL document CHEMBL1140163 (J Med Chem, 2008):

What was measured:
Blood = test: Inhibition of TNF-alpha-induced IL8 production in human whole blood cells; assay type: functional, cell-based
Rattus norvegicus [1] = test: Antiinflammatory activity against collagen-induced arthritis Lewis rat model assessed as area under the paw swelling curve at 0.04 mg/kg, po relative to control; assay type: functional, organism-based; parameters: dose 0.04 mg/kg
[2] = biological target: Tyrosine-protein kinase Lyn (Homo sapiens, UniProt P07948); test: Inhibition of Lyn
Chain of Tyrosine-protein kinase Lyn (P07948 whole entry): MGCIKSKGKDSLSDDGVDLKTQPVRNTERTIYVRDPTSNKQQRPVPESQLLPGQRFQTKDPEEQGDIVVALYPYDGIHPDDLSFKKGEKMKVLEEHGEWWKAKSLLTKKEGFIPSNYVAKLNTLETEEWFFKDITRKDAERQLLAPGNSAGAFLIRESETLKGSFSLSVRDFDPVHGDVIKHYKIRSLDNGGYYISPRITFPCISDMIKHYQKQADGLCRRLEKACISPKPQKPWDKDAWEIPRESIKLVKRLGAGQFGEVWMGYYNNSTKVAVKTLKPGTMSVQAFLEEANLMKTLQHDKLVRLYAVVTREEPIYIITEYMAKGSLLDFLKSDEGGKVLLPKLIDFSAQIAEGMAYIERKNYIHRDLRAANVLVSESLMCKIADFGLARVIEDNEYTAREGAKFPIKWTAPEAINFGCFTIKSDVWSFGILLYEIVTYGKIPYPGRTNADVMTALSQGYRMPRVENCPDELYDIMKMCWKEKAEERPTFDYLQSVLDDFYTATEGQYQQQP

[3] = biological target: Mitogen-activated protein kinase 9 (Homo sapiens, UniProt P45984); test: Inhibition of JNK2
Chain of Mitogen-activated protein kinase 9 (P45984 whole entry): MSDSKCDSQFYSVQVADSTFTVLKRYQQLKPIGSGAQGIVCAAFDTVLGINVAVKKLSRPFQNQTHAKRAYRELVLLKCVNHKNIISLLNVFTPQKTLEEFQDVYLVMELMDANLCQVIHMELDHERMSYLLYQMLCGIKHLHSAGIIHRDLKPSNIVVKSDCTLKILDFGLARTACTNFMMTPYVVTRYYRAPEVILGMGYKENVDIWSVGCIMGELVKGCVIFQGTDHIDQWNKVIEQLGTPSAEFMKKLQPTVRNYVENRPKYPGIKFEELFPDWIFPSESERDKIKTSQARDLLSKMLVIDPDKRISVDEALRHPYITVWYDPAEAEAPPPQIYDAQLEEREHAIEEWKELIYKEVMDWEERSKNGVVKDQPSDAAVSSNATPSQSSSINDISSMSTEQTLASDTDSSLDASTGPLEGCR

[4] = biological target: Mitogen-activated protein kinase 8 (Homo sapiens, UniProt P45983); test: Inhibition of JNK1
Chain of Mitogen-activated protein kinase 8 (P45983 whole entry): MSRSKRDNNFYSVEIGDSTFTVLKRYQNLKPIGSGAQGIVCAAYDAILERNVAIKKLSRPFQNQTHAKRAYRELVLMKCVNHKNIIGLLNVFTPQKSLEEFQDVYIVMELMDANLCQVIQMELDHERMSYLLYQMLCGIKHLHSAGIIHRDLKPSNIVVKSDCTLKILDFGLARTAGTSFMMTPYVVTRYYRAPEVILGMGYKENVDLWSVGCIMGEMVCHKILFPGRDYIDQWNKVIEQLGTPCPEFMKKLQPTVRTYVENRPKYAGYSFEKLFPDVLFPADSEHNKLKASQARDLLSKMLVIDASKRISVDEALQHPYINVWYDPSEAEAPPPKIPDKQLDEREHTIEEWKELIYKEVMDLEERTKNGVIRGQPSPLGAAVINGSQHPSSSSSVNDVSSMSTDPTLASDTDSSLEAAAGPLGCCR

[5] = AUC (0 to infinity) in Sprague-Dawley rat 10 mg/kg, po; assay type: ADME, organism-based; parameters: dose 10 mg/kg, route oral, time infinity; conditions: plasma
[6] = Half life in Sprague-Dawley rat 2 mg/kg, iv; assay type: ADME, organism-based; parameters: dose 2 mg/kg, route intravenous; conditions: in vivo
[7] = biological target: Tyrosine-protein kinase Lck (Homo sapiens, UniProt P06239)
Chain of Tyrosine-protein kinase Lck (P06239 whole entry): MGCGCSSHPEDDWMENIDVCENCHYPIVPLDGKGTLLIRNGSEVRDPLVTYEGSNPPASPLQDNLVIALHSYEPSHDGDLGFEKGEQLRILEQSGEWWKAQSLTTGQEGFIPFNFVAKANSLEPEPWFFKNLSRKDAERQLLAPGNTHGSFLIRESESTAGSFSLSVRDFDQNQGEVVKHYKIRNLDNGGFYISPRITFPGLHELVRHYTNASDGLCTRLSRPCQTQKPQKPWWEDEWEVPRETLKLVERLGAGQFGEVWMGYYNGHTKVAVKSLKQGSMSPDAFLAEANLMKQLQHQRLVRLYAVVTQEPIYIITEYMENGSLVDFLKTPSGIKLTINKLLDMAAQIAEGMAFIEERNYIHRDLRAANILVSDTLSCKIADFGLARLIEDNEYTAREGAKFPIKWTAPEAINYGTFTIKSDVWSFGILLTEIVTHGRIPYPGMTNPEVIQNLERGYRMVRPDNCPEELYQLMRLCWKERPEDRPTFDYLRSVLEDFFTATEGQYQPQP

[8] = Oral bioavailability in Sprague-Dawley rat 10 mg/kg; assay type: ADME, organism-based; conditions: in vivo
[9] = Volume of distribution at steady state in Sprague-Dawley rat 2 mg/kg, iv; assay type: ADME, organism-based; parameters: dose 2 mg/kg, route intravenous; conditions: in vivo, read-out: Vdss
Rattus norvegicus [10] = species: Rattus norvegicus; test: Inhibition of LPS-induced TNFalpha production in Lewis rat; assay type: functional
[11] = Inhibition of PDGFR
THP-1 = test: Inhibition of LPS-induced TNFalpha production in human THP1 cells; assay type: functional, cell-based
[12] = Clearance in Sprague-Dawley rat 2 mg/kg, iv; assay type: ADME, organism-based; parameters: dose 2 mg/kg, route intravenous; conditions: in vivo
[13] = biological target: Mast/stem cell growth factor receptor Kit (Homo sapiens, UniProt P10721); test: Inhibition of cKit
Chain of Mast/stem cell growth factor receptor Kit (P10721 whole entry): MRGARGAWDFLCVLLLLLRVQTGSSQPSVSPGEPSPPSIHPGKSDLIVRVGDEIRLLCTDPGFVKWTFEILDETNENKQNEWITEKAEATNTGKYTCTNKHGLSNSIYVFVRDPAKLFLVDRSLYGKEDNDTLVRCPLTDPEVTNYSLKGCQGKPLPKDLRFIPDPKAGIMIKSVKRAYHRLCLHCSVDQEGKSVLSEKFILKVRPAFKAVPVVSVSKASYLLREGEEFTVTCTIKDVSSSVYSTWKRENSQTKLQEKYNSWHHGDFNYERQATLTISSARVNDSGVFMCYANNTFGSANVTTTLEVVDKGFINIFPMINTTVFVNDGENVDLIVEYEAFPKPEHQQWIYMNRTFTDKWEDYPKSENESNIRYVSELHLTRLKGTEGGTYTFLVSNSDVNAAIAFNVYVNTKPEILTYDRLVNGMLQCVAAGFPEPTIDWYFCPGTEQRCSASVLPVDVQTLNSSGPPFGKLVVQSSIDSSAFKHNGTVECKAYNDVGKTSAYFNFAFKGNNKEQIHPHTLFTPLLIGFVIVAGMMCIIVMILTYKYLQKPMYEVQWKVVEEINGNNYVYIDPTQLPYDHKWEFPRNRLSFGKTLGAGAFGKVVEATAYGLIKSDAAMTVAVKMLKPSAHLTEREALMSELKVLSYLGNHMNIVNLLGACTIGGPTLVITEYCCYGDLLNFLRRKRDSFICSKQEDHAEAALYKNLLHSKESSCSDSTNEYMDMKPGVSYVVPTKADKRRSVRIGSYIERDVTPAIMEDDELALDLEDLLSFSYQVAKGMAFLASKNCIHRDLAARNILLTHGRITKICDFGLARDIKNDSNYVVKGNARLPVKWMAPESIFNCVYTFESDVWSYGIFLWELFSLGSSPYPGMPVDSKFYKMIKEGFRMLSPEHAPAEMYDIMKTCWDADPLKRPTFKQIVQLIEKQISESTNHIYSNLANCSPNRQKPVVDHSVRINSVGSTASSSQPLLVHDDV

[14] = biological target: Vascular endothelial growth factor receptor 2 (Homo sapiens, UniProt P35968)
Chain of Vascular endothelial growth factor receptor 2 (P35968 whole entry): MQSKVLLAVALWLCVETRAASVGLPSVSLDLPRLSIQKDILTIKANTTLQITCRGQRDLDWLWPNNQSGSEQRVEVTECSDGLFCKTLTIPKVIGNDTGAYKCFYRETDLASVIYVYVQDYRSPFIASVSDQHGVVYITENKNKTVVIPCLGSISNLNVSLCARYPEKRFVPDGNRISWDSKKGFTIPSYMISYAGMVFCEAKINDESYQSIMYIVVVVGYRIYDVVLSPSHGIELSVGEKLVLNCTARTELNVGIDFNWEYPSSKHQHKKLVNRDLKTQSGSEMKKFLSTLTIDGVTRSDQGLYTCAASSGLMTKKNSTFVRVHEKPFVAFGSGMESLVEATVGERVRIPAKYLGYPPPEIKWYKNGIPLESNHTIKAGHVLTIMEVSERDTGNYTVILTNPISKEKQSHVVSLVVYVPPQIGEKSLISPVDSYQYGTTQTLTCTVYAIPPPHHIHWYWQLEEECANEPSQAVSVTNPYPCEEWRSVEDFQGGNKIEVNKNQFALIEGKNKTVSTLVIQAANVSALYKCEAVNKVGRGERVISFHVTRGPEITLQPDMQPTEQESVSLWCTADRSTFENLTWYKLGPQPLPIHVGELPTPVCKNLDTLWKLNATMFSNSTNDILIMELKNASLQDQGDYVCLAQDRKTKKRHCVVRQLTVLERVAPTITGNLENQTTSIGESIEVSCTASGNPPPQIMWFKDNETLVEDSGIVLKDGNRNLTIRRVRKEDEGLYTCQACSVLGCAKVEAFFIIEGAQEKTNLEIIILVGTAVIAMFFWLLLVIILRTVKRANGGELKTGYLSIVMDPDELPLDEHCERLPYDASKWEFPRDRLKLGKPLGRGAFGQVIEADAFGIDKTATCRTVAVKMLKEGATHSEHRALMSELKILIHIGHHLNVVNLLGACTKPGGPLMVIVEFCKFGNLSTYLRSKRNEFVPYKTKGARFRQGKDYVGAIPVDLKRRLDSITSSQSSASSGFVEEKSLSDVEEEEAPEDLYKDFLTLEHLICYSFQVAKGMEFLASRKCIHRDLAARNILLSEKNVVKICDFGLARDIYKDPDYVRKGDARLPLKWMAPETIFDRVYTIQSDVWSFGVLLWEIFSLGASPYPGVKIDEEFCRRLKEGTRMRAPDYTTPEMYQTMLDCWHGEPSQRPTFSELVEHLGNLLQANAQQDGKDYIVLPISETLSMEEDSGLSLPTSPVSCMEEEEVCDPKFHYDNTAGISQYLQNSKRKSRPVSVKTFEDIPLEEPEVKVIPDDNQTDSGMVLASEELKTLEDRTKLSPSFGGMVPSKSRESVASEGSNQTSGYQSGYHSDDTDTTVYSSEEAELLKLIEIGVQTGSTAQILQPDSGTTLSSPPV

Rattus norvegicus [15] = test: Antiinflammatory activity against collagen-induced arthritis in po dosed Lewis rat model assessed as inhibition of paw swelling; assay type: functional
[16] = biological target: Mitogen-activated protein kinase 14 (Homo sapiens, UniProt Q16539)
Chain of Mitogen-activated protein kinase 14 (Q16539 whole entry): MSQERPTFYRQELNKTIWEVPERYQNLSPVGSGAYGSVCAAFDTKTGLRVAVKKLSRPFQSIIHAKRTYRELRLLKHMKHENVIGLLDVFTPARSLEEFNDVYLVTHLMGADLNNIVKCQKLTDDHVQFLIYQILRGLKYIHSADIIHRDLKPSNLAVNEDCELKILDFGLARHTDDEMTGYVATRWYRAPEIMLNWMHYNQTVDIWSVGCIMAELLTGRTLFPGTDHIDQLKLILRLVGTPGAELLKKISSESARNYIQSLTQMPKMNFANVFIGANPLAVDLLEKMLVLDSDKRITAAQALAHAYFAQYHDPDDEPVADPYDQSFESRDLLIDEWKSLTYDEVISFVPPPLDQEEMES

[17] = biological target: Mitogen-activated protein kinase 10 (Homo sapiens, UniProt P53779); test: Inhibition of JNK3
Chain of Mitogen-activated protein kinase 10 (P53779 whole entry): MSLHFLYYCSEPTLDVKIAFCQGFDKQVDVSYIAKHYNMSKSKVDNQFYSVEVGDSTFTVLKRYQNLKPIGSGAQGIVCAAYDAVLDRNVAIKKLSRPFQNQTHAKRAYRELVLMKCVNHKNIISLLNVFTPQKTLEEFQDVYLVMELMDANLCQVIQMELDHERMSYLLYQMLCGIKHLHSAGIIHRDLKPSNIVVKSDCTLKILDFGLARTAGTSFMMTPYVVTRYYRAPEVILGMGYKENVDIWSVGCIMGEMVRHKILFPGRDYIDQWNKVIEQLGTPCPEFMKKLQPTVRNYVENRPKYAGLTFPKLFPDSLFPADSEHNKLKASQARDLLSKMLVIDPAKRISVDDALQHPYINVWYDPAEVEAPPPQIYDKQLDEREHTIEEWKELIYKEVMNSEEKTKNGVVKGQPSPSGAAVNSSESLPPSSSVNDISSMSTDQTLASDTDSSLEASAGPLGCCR

[18] = Volume of distribution at steady state in Sprague-Dawley rat 1 mg/kg, iv; assay type: ADME, organism-based; parameters: dose 1 mg/kg, route intravenous; conditions: in vivo, read-out: Vdss
[19] = Permeability from apical to basolateral side of human Caco-2 cells; assay type: ADME, cell-based
[20] = Oral bioavailability in Sprague-Dawley rat 1 mg/kg; assay type: ADME, organism-based; conditions: in vivo
[21] = Permeability from basolateral to apical side of human Caco-2 cells; assay type: ADME, cell-based
[22] = Half life in Sprague-Dawley rat 1 mg/kg, iv; assay type: ADME, organism-based; parameters: dose 1 mg/kg, route intravenous; conditions: in vivo
[23] = AUC (0 to infinity) in Sprague-Dawley rat 1 mg/kg, po; assay type: ADME, organism-based; parameters: time infinity, dose 1 mg/kg, route oral; conditions: plasma
[24] = Clearance in Sprague-Dawley rat 1 mg/kg, iv; assay type: ADME, organism-based; parameters: dose 1 mg/kg, route intravenous; conditions: in vivo

| Structure (SMILES) | IC50 (Blood) [nM] | IC50 [3] [nM] | IC50 [4] [nM] | AUC(0-inf) [5] [ng·h/mL] | half-life [6] [h] | IC50 [7] [nM] | bioavailability [8] [%] | Vd [9] [L/kg] | IC50 (THP-1) [nM] | clearance [12] [mL/min/kg] | IC50 [13] [nM] | IC50 [14] [nM] | IC50 [16] [nM] | IC50 [17] [nM] | further results |
| --- | --- | --- | --- | --- | --- | --- | --- | --- | --- | --- | --- | --- | --- | --- | --- |
| Cc1ccc(C(=O)NC2CC2)cc1-c1ccc2c(O[C@@H](C)C(F)(F)F)nncc2c1 | 2.7 | 7770 | > 10000 | 21100 | 9.9 | > 5000 | 72 | 4.7 | 0.4 | 5.83 | 1060 | 2680 | 1 | > 10000 | AUC (Rattus norvegicus [1]): 51.1 ng·h/mL; IC50 [2]: 954 nM; ED50 (Rattus norvegicus [10]): < 0.03 mg/kg; IC50 [11]: 88 nM; ED50 (Rattus norvegicus [15]): 0.04 mg/kg |
| Cc1ccc(C(=O)NC2CC2)cc1-c1ccc2c(N3CCOCC3)nncc2c1 | 0.9 | 9690 | > 10000 | – | – | 3810 | – | – | 0.7 | – | 529 | 3040 | 1.2 | > 10000 | Vd [18]: 3.5 L/kg; Papp A→B [19]: 10.5 ×10⁻⁶ cm/s; bioavailability [20]: 22%; Papp B→A [21]: 39.8 ×10⁻⁶ cm/s; half-life [22]: 4.1 h; AUC(0-inf) [23]: 124 ng·h/mL; clearance [24]: 28.3 mL/min/kg |
| Cc1ccc(C(=O)NC2CC2)cc1-c1ccc2c(NCCN3CCOCC3)nncc2c1 | 4.3 | > 10000 | > 10000 | 39 | 2.3 | > 10000 | 1 | 2.8 | 24.9 | 20 | 1060 | 5140 | 1.9 | > 10000 | Papp A→B [19]: 0.3 ×10⁻⁶ cm/s; Papp B→A [21]: 31 ×10⁻⁶ cm/s |
| Cc1ccc(C(=O)NC2CC2)cc1-c1ccc2c(-c3ccccc3C)nncc2c1 | – | – | – | 2330 | 1.4 | – | 40 | 1.8 | – | 28.3 | – | – | – | – | – |
| O=C(NC1CC1)c1cccc(-c2ccc3c(N4CCOCC4)nncc3c2)c1 | – | – | – | – | – | – | – | – | – | – | > 8330 | – | 182 | – | – |
| Cc1ccc(C(=O)NC2CC2)cc1-c1ccc2c(N3CCOC[C@@H]3C)nncc2c1 | 1.2 | 4830 | > 10000 | 7090 | 1.3 | > 10000 | 57 | 1.2 | 1.1 | 13.3 | 2010 | 8550 | 1.1 | > 10000 | – |
| Cc1ccc(C(=O)NC2CC2)cc1-c1ccc2c(O[C@H](C)C(F)(F)F)nncc2c1 | 8.1 | 4390 | > 10000 | – | – | 6050 | – | – | 0.9 | – | 1170 | 505 | 0.8 | 9490 | – |

The next lines start with results.

| IC50 (Blood) [nM] | IC50 [3] [nM] | IC50 [4] [nM] | AUC(0-inf) [5] [ng·h/mL] | half-life [6] [h] | IC50 [7] [nM] | bioavailability [8] [%] | Vd [9] [L/kg] | IC50 (THP-1) [nM] | clearance [12] [mL/min/kg] | IC50 [13] [nM] | IC50 [14] [nM] | IC50 [16] [nM] | IC50 [17] [nM] | Structure (SMILES) | further results |
| --- | --- | --- | --- | --- | --- | --- | --- | --- | --- | --- | --- | --- | --- | --- | --- |
| 1.6 | 5950 | > 10000 | 10900 | 1.8 | 3610 | 92 | 2.1 | 0.4 | 13.3 | 421 | 1140 | 0.6 | > 10000 | Cc1ccc(C(=O)NC2CC2)cc1-c1ccc2c(OC(C)C)nncc2c1 | – |
| – | – | – | – | – | – | – | – | – | – | 41 | – | 0.6 | – | Cc1ccc(C(=O)NC2CC2)cc1-c1ccc2c(OC(C)C)cncc2c1 | – |
| 3.5 | > 10000 | > 10000 | – | – | 1340 | – | – | 0.8 | – | 149 | 6290 | 2 | > 10000 | Cc1ccc(C(=O)NC2CC2)cc1-c1ccc2c(-c3ccccc3)nncc2c1 | – |
